Tested on: 186277-243-T-J2-PDC complex spheroid viability
Test: Anticancer human tumor 186277-243-T-J2-PDC patient-derived colon adenocarcinoma cell line growth inhibition [GQUAD]
Conditions: for IC50: curve of first compound; for viability, T/C: stronger effect = lower value
Text: DNA G-quadruplex Stabilizer Agents in Combinations in Complex Spheroids
A high-throughput screen of multi-cell type tumor spheroids was designed to identify active combinations of DNA G-quadruplex stabilizer agents and targeted small molecules. Complex spheroids include a stromal component modeled by human endothelial cells (HUVEC) and fibroblasts modeled by human mesenchymal stem cells (MSCs). The concentration ranges selected for each drug and investigational agent were based upon clinically achievable concentrations if the clinical Cmax of the agent was known.
Compounds. The drugs and investigational agents: pidnarulex (CX-5461; NSC782164), APTO-253 (NSC789042), BRACO-19 (NSC847499), peposertib (NSC802822), ceralasertib (NSC780249), elimusertib (NSC800525), camonsertib (NSC841442), AZD-1390 (NSC803789), olaparib (NSC753686), talazoparib (NSC767125), ART-558 (NSC835418), sotorasib (NSC818433), MRTX-1133 (NSC836407), SN-38 (NSC673596), topotecan (NSC609699), etoposide (NSC141540), doxorubicin (NSC123127), gemcitabine (NSC613327), 5-fluorouracil (NSC19893), paclitaxel (NSC125973), vemurafenib (NSC761431), panobinostat (NSC761190), R-306465 (JNJ-16241199; NSC773264), adavosertib (NSC754352), TP-3654 (NSC805149), carboplatin (NSC241240), KSQ-4279 (NSC840948), and staurosporine (NSC755774) were obtained from the National Cancer Institute (NCI) Developmental Therapeutics Program Chemical Repository (34). The FDA-approved anticancer drug set is available from the NCI Developmental Therapeutics Program. […] The stock solutions were prepared in dimethyl sulfoxide (DMSO, Sigma-Aldrich, St. Louis, MO, cat. D2650) at 800-fold the tested concentration and stored at -70 degrees C prior to their use. All drugs and investigational agents were tested over a range starting from a high concentration at or near the clinical Cmax and decreasing in half-log increments. If the clinical Cmax for an agent had not been determined, the highest concentration tested was 10 microM.
2.3 Cell Culture. All cells were maintained in an incubator at 37 degrees C and 5% CO2 with 95% humidity. The PDC lines were cultured according to standard operating procedures established by the NCI PDMR. All PDCs were thawed and cultured in Matrigel-coated flasks prepared with a working solution of 1X Ham's F-12 nutrient mix, without supplementation (Invitrogen, cat. 11765054), 100 U/mL penicillin-streptomycin (Invitrogen, cat. 15140122), and 2.5% Matrigel (Corning Inc., cat. 354248) for the first three passages. The 857933-349-R-J2-PDC line was cultured in 6C/Colon 1B media, which includes advanced DMEM/F-12 (Thermo Fisher Scientific, cat. 12634028), 10 mM HEPES (Thermo Fisher Scientific, cat. 15630080), 1X GlutaMAX supplement (Thermo Fisher Scientific, cat. 35050061), 0.1 mg/mL primocin (InvivoGen, cat. ant-pm-2), 10% defined fetal bovine serum, heat inactivated (HyClone Laboratories Inc., cat. SH30070.03HI), 50% L-WRN conditioned media (ATCC, cat. CRL-3276), 1.25 mM N-Acetyl-L-cysteine (Sigma-Aldrich, cat. A9165), 10 mM nicotinamide (Sigma-Aldrich, cat. N0636), 1X B-27 supplement (Thermo Fisher Scientific, cat. 17504044), 1X N-2 supplement (Thermo Fisher Scientific, cat. 17502048), 10 microM Y-27632 dihydrochloride (Tocris Bioscience, cat. 1254), and 50 ng/mL human EGF recombinant protein (Thermo Fisher Scientific, cat. PHG0311). The 485176-168-R4-J1-PDC line was cultured in Panc media, which includes all 6C/Colon 1B media components plus 100 ng/mL human FGF-10 (Thermo Fisher Scientific, cat. 100-26), 500 nM SB-431542 (Selleckchem, cat. S1067), and gastrin (Tocris, cat. 3006).
[…]

[1] = second compound 0.0316 µM, first compound 0.0316 µM
[2] = second compound 0.0316 µM, first compound 0.316 µM
[3] = second compound 0.1 µM, first compound 0.0316 µM
[4] = second compound 0.1 µM, first compound 0.316 µM
[5] = second compound 0.316 µM, first compound 0.0316 µM
[6] = second compound 0.316 µM, first compound 0.316 µM
[7] = second compound 1 µM, first compound 0.0316 µM
[8] = second compound 1 µM, first compound 0.316 µM
[9] = second compound 3.16 µM, first compound 0.0316 µM
[10] = second compound 3.16 µM, first compound 0.316 µM
[11] = second compound 10 µM, first compound 0.0316 µM
[12] = second compound 10 µM, first compound 0.316 µM
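Note: spheroids exposed to drugs for 7 days.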
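Throughout, for viability, T/C: 100% = DMSO vehicle control viability.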

Question: Which results are given for `CCCS(=O)(=O)Nc1ccc(F)c(C(=O)c2c[nH]c3ncc(-c4ccc(Cl)cc4)cc23)c1F` + CN(C)c1ccc(Nc2c3ccc(NC(=O)CCN4CCCC4)cc3nc3cc(NC(=O)CCN4CCCC4)ccc23)cc1?
Answer: IC50 (second compound 0.0316 µM): 5.89 µM; IC50 (second compound 0.1 µM): 6.44 µM; IC50 (second compound 0.316 µM): 6.24 µM; IC50 (second compound 1 µM): 6.27 µM; IC50 (second compound 3.16 µM): 6.28 µM; IC50 (second compound 10 µM): 5.82 µM; viability, T/C [1]: 97.2%; viability, T/C (second compound 0.0316 µM, first compound 0.1 µM): 101%; viability, T/C [2]: 90.2%; viability, T/C (second compound 0.0316 µM, first compound 1 µM): 78.8%; viability, T/C (second compound 0.0316 µM, first compound 3.16 µM): 77.9%; viability, T/C (second compound 0.0316 µM, first compound 10 µM): 30.3%; viability, T/C [3]: 95.2%; viability, T/C (second compound 0.1 µM, first compound 0.1 µM): 81.4%; viability, T/C [4]: 83.6%; viability, T/C (second compound 0.1 µM, first compound 1 µM): 84.6%; viability, T/C (second compound 0.1 µM, first compound 3.16 µM): 95.8%; viability, T/C (second compound 0.1 µM, first compound 10 µM): 26.2%; viability, T/C [5]: 89.1%; viability, T/C (second compound 0.316 µM, first compound 0.1 µM): 102%; viability, T/C [6]: 86.3%; viability, T/C (second compound 0.316 µM, first compound 1 µM): 87%; viability, T/C (second compound 0.316 µM, first compound 3.16 µM): 82.7%; viability, T/C (second compound 0.316 µM, first compound 10 µM): 27.7%; viability, T/C [7]: 90.3%; viability, T/C (second compound 1 µM, first compound 0.1 µM): 93.1%; viability, T/C [8]: 84.4%; viability, T/C (second compound 1 µM, first compound 1 µM): 98.9%; viability, T/C (second compound 1 µM, first compound 3.16 µM): 83%; viability, T/C (second compound 1 µM, first compound 10 µM): 26.7%; viability, T/C [9]: 92.2%; viability, T/C (second compound 3.16 µM, first compound 0.1 µM): 105%; viability, T/C [10]: 86.5%; viability, T/C (second compound 3.16 µM, first compound 1 µM): 90.4%; viability, T/C (second compound 3.16 µM, first compound 3.16 µM): 82.5%; viability, T/C (second compound 3.16 µM, first compound 10 µM): 28.4%; viability, T/C [11]: 96.9%; viability, T/C (second compound 10 µM, first compound 0.1 µM): 91.1%; viability, T/C [12]: 97.9%; viability, T/C (second compound 10 µM, first compound 1 µM): 87.7%; viability, T/C (second compound 10 µM, first compound 3.16 µM): 82.3%; viability, T/C (second compound 10 µM, first compound 10 µM): 22%

Question: Which results are given for `Cn1ncnc1[C@H]1c2n[nH]c(=O)c3cc(F)cc(c23)N[C@@H]1c1ccc(F)cc1` + CN(C)c1ccc(Nc2c3ccc(NC(=O)CCN4CCCC4)cc3nc3cc(NC(=O)CCN4CCCC4)ccc23)cc1?
Answer: IC50 (second compound 0.0316 µM): > 0.316 µM; IC50 (second compound 0.1 µM): > 0.316 µM; IC50 (second compound 0.316 µM): > 0.316 µM; IC50 (second compound 1 µM): > 0.316 µM; IC50 (second compound 3.16 µM): > 0.316 µM; IC50 (second compound 10 µM): > 0.316 µM; viability, T/C (second compound 0.0316 µM, first compound 0.000999 µM): 91.8%; viability, T/C (second compound 0.0316 µM, first compound 0.00316 µM): 104%; viability, T/C (second compound 0.0316 µM, first compound 0.00999 µM): 108%; viability, T/C [1]: 80.6%; viability, T/C (second compound 0.0316 µM, first compound 0.0999 µM): 86.6%; viability, T/C [2]: 76.8%; viability, T/C (second compound 0.1 µM, first compound 0.000999 µM): 108%; viability, T/C (second compound 0.1 µM, first compound 0.00316 µM): 113%; viability, T/C (second compound 0.1 µM, first compound 0.00999 µM): 96.2%; viability, T/C [3]: 114%; viability, T/C (second compound 0.1 µM, first compound 0.0999 µM): 90.2%; viability, T/C [4]: 82%; viability, T/C (second compound 0.316 µM, first compound 0.000999 µM): 83.8%; viability, T/C (second compound 0.316 µM, first compound 0.00316 µM): 108%; viability, T/C (second compound 0.316 µM, first compound 0.00999 µM): 102%; viability, T/C [5]: 115%; viability, T/C (second compound 0.316 µM, first compound 0.0999 µM): 92.1%; viability, T/C [6]: 86.8%; viability, T/C (second compound 1 µM, first compound 0.000999 µM): 105%; viability, T/C (second compound 1 µM, first compound 0.00316 µM): 91.8%; viability, T/C (second compound 1 µM, first compound 0.00999 µM): 97.6%; viability, T/C [7]: 106%; viability, T/C (second compound 1 µM, first compound 0.0999 µM): 85.6%; viability, T/C [8]: 85%; viability, T/C (second compound 3.16 µM, first compound 0.000999 µM): 101%; viability, T/C (second compound 3.16 µM, first compound 0.00316 µM): 94.7%; viability, T/C (second compound 3.16 µM, first compound 0.00999 µM): 107%; viability, T/C [9]: 94%; viability, T/C (second compound 3.16 µM, first compound 0.0999 µM): 85.5%; viability, T/C [10]: 94.6%; viability, T/C (second compound 10 µM, first compound 0.000999 µM): 114%; viability, T/C (second compound 10 µM, first compound 0.00316 µM): 92.3%; viability, T/C (second compound 10 µM, first compound 0.00999 µM): 99.2%; viability, T/C [11]: 106%; viability, T/C (second compound 10 µM, first compound 0.0999 µM): 83.6%; viability, T/C [12]: 82%
